Test results taken from patent US12421249B2, “Inhibitors of APOL1 and methods of using same” (Vertex Pharmaceuticals Incorporated, priority 2020, dated 2025).

Each compound was assayed against T1, APOL1 (Homo sapiens, UniProt O14791) (assay: Multi-Tox Assay (MultiTox-Fluor Multiplex Cytotoxicity Assay in tet-inducible APOL1 T-REx-HEK293 cells; Table 46 does not say which APOL1 variant G0/G1/G2)). Conditions: APOL1 variant not given.
T1 sequence (O14791 1-398 S342G/I384M): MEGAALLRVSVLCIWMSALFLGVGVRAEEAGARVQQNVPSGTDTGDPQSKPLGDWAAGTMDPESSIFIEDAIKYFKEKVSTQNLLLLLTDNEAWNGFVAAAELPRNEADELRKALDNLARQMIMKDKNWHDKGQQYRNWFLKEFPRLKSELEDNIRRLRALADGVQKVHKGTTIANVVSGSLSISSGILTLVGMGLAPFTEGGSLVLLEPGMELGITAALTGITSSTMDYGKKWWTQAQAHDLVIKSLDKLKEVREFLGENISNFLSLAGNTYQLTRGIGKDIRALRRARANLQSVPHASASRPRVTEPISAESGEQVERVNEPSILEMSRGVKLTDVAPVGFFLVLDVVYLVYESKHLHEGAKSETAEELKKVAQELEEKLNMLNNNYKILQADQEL
Assay type: cell-based
With C[C@H]1C[C@@]2(C[C@@H](c3cnn4ccccc34)N1)OCCc1cc(Cl)sc12 (racemic) [Compound 117] the “Multi-Tox Assay Max Activity (%)” value was 99.0%.
For C[C@H]1C[C@@]2(C[C@@H](c3ccn(C)n3)N1)OCCc1cc(Cl)sc12 (racemic) [Compound 118], the “Multi-Tox Assay Max Activity (%)” value was 99.3%.
C[C@H]1C[C@@]2(C[C@@H](c3cc(C4CC4)n[nH]3)N1)OCCc1cc(Cl)sc12 (racemic) [Compound 120] was tested, and the “Multi-Tox Assay Max Activity (%)” value was 99.0%.
C[C@H]1C[C@@]2(C[C@@H](c3ccc[nH]c3=O)N1)OCCc1cc(Cl)sc12 (racemic) [Compound 121] was tested, and the “Multi-Tox Assay Max Activity (%)” value was 99.0%.
C[C@H]1C[C@@]2(C[C@@H](c3ccc(C(F)(F)F)nc3)N1)OCCc1cc(Cl)sc12 (racemic) [Compound 123] was tested, and the “Multi-Tox Assay Max Activity (%)” value was 100.0%.
In the case of C[C@H]1C[C@@]2(C[C@@H](c3cn(C)c(=O)n(C)c3=O)N1)OCCc1cc(Cl)sc12 (racemic) [Compound 124], the “Multi-Tox Assay Max Activity (%)” value is reported as 99.3%.
Cc1cc(O)ncc1[C@@H]1C[C@]2(C[C@H](C)N1)OCCc1cc(Cl)sc12 (racemic) [Compound 125] was tested, and the “Multi-Tox Assay Max Activity (%)” value was 99.7%.
Cc1cccc([C@@H]2C[C@]3(C[C@H](C)N2)OCCc2cc(Cl)sc23)n1 (racemic) [Compound 126] was tested, and the “Multi-Tox Assay Max Activity (%)” value was 99.4%.
In the case of C[C@H]1C[C@@]2(C[C@@H](c3ccnc(N(C)C)n3)N1)OCCc1cc(Cl)sc12 (racemic) [Compound 127], the “Multi-Tox Assay Max Activity (%)” value is reported as 99.3%.

Same assay, conditions: IP50 = IC50 for cell proliferation, APOL1 variant not given
In the case of C[C@H]1C[C@@]2(C[C@@H](c3cnn4ccccc34)N1)OCCc1cc(Cl)sc12 (racemic) [Compound 117], the IC50 is reported as under 50 nM.
For C[C@H]1C[C@@]2(C[C@@H](c3ccn(C)n3)N1)OCCc1cc(Cl)sc12 (racemic) [Compound 118], the IC50 was under 50 nM.
In the case of C[C@H]1C[C@@]2(C[C@@H](c3cc(C4CC4)n[nH]3)N1)OCCc1cc(Cl)sc12 (racemic) [Compound 120], the IC50 is reported as under 50 nM.
With C[C@H]1C[C@@]2(C[C@@H](c3ccc[nH]c3=O)N1)OCCc1cc(Cl)sc12 (racemic) [Compound 121] the IC50 was under 50 nM.
Compound C[C@H]1C[C@@]2(C[C@@H](c3ccc(C(F)(F)F)nc3)N1)OCCc1cc(Cl)sc12 (racemic) [Compound 123] has an IC50 of under 50 nM.
Compound C[C@H]1C[C@@]2(C[C@@H](c3cn(C)c(=O)n(C)c3=O)N1)OCCc1cc(Cl)sc12 (racemic) [Compound 124] has an IC50 of 50 to 500 nM.
For Cc1cc(O)ncc1[C@@H]1C[C@]2(C[C@H](C)N1)OCCc1cc(Cl)sc12 (racemic) [Compound 125], the IC50 was under 50 nM.
Cc1cccc([C@@H]2C[C@]3(C[C@H](C)N2)OCCc2cc(Cl)sc23)n1 (racemic) [Compound 126] was tested, and the IC50 was 50 to 500 nM.
C[C@H]1C[C@@]2(C[C@@H](c3ccnc(N(C)C)n3)N1)OCCc1cc(Cl)sc12 (racemic) [Compound 127] showed an IC50 of 50 to 500 nM.

The compounds below were run against T2, APOL1 G1 (Homo sapiens, UniProt O14791, I384M/S342G) (assay: Trypanosoma brucei brucei Lysis Assay Using APOL1 Recombinant Protein (AlamarBlue viability readout)). Conditions: Trypanosome Assay; IP50 = IC50 for cell proliferation; read-out: Trypanosome Assay IP50.
T2 sequence (O14791 28-398 S342G/I384M): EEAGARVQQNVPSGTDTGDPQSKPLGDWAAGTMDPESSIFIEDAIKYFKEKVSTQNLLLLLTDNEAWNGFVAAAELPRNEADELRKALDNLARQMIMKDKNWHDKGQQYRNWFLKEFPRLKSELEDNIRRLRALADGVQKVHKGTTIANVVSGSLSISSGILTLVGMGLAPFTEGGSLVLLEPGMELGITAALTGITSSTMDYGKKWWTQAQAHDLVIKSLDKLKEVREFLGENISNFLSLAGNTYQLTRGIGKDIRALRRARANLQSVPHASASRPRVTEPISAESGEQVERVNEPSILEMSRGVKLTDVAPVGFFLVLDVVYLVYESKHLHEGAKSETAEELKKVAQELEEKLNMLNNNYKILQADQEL
Assay type: cell-based
Summary of the method: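 Percent viability comes from AlamarBlue (resazurin→resorufin) fluorescence interpolated on a standard curve of known parasite numbers, with no-APOL1 wells as 100%. Parasites (Lister 427 bloodstream form, 120,000/well, serum-free assay medium) meet 0.05 μg/mL APOL1 (~EC90). Compounds span a 10-point series, 0.1% DMSO final.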
C[C@H]1C[C@@]2(C[C@@H](c3cnn4ccccc34)N1)OCCc1cc(Cl)sc12 (racemic) [Compound 117] gave an IC50 of under 50 nM.
In the case of C[C@H]1C[C@@]2(C[C@@H](c3ccn(C)n3)N1)OCCc1cc(Cl)sc12 (racemic) [Compound 118], the IC50 is reported as 50 to 500 nM.
With C[C@H]1C[C@@]2(C[C@@H](c3cc(C4CC4)n[nH]3)N1)OCCc1cc(Cl)sc12 (racemic) [Compound 120] the IC50 was 50 to 500 nM.
Compound C[C@H]1C[C@@]2(C[C@@H](c3ccc[nH]c3=O)N1)OCCc1cc(Cl)sc12 (racemic) [Compound 121] has an IC50 of 50 to 500 nM.
C[C@H]1C[C@@]2(C[C@@H](c3ccc(C(F)(F)F)nc3)N1)OCCc1cc(Cl)sc12 (racemic) [Compound 123] gave an IC50 of under 50 nM.
C[C@H]1C[C@@]2(C[C@@H](c3cn(C)c(=O)n(C)c3=O)N1)OCCc1cc(Cl)sc12 (racemic) [Compound 124] showed an IC50 of 50 to 500 nM.
With Cc1cc(O)ncc1[C@@H]1C[C@]2(C[C@H](C)N1)OCCc1cc(Cl)sc12 (racemic) [Compound 125] the IC50 was 50 to 500 nM.
With Cc1cccc([C@@H]2C[C@]3(C[C@H](C)N2)OCCc2cc(Cl)sc23)n1 (racemic) [Compound 126] the IC50 was 50 to 500 nM.
With C[C@H]1C[C@@]2(C[C@@H](c3ccnc(N(C)C)n3)N1)OCCc1cc(Cl)sc12 (racemic) [Compound 127] the IC50 was 50 to 500 nM.

Same assay, conditions: Trypanosome Assay; read-out: Trypanosome Assay Max Activity (%)
C[C@H]1C[C@@]2(C[C@@H](c3cnn4ccccc34)N1)OCCc1cc(Cl)sc12 (racemic) [Compound 117] showed an Emax of 101%.
For C[C@H]1C[C@@]2(C[C@@H](c3ccn(C)n3)N1)OCCc1cc(Cl)sc12 (racemic) [Compound 118], the Emax was 98%.
C[C@H]1C[C@@]2(C[C@@H](c3cc(C4CC4)n[nH]3)N1)OCCc1cc(Cl)sc12 (racemic) [Compound 120] was tested, and the Emax was 91.5%.
C[C@H]1C[C@@]2(C[C@@H](c3ccc[nH]c3=O)N1)OCCc1cc(Cl)sc12 (racemic) [Compound 121] showed an Emax of 97.5%.
With C[C@H]1C[C@@]2(C[C@@H](c3ccc(C(F)(F)F)nc3)N1)OCCc1cc(Cl)sc12 (racemic) [Compound 123] the Emax was 104%.
C[C@H]1C[C@@]2(C[C@@H](c3cn(C)c(=O)n(C)c3=O)N1)OCCc1cc(Cl)sc12 (racemic) [Compound 124] was tested, and the Emax was 104%.
In the case of Cc1cc(O)ncc1[C@@H]1C[C@]2(C[C@H](C)N1)OCCc1cc(Cl)sc12 (racemic) [Compound 125], the Emax is reported as 103%.
Cc1cccc([C@@H]2C[C@]3(C[C@H](C)N2)OCCc2cc(Cl)sc23)n1 (racemic) [Compound 126] gave an Emax of 115%.
C[C@H]1C[C@@]2(C[C@@H](c3ccnc(N(C)C)n3)N1)OCCc1cc(Cl)sc12 (racemic) [Compound 127] showed an Emax of 107%.
